Assay [1] addresses genotype 1a HCV NS3/4A protease domain (wild-type) (Hepatitis C virus genotype 1a, UniProt A8DG50). The assay is described as follows: biochemical. Also on record: species or system HCV genotype 1a.
For assay [2], the system named is D168A genotype 1a HCV Con1 luciferase reporter replicon in Huh7 cells. Put plainly: Viral replicon-based inhibition assay, D168A variant. Type of assay: cell-based, HCV genotype 1a. The settings on record: Hepatitis C virus, Huh-7, 96 h, read-out: Replicon - IC50, D168A. An excerpt: (§1) Single mutations (R155K, D168A, or A156T) were introduced into the NS3 region of genotype 1a HCV Con1 luciferase reporter replicon using the mega-primer method of mutagenesis. Replicon RNA of each protease variant was introduced into Huh7 cells by electroporation.
(Replicon systems follow genome replication, usually without infectious particles.)

Assay [3] deals with R155K genotype 1a HCV Con1 luciferase reporter replicon in Huh7 cells. The assay is described as follows: Viral replicon-based inhibition assay, R155K variant. Type of assay: cell-based, HCV genotype 1a. The settings on record: Hepatitis C virus, Huh-7, 96 h, read-out: Replicon - IC50, R155K.
From the text: as §1

Another assay relates to genotype 3 viruses. Particulars: genotype 3 viruses (Q168, T123); cited from earlier work.
Assay [4] relates to wild-type genotype 1a HCV Con1 luciferase reporter replicon in Huh7 cells. The assay is described as follows: Viral replicon-based inhibition assay, wild-type. Type of assay: cell-based, HCV genotype 1a. The settings on record: Hepatitis C virus, Huh-7, luciferase activity 96 hours after electroporation, read-out: Replicon - IC50, WT. The text has this: . The antiviral activities against the resistant variants trended with changes in binding affinities measured in enzyme inhibition assays (Table 1). […]. Single mutations (R155K, D168A, or A156T) were introduced into the NS3 region of genotype 1a HCV Con1 luciferase reporter replicon using the mega-primer method of mutagenesis. Replicon RNA of each protease variant was introduced into Huh7 cells by electroporation. […]. The drug concentrations required to inhibit replicon replication by 50% (IC50) were calculated directly from the drug inhibition curves.

Assay [5] has as its system A156T genotype 1a HCV Con1 luciferase reporter replicon in Huh7 cells. Put plainly: Viral replicon-based inhibition assay, A156T variant. Particulars: Hepatitis C virus, Huh-7, 96 h, read-out: Replicon - IC50, A156T. Type of assay: cell-based, HCV genotype 1a.
From the text: as §1

Assay [6] deals with T1, genotype 1a HCV NS3/4A protease domain A156T (Hepatitis C virus genotype 1a, UniProt P27958, A1182T).
T1 construct: single-chain construct of the genotype 1a NS3/4A protease domain; His-tag (cleaved yes); made in house; host or cells: E. coli BL21 (DE3)
Put plainly: biochemical. Also on record: species or system HCV genotype 1a.

The mark [7] stands for this setting: apparent Ki, Morrison equation, 5 nM protease, triplicate, average ± standard deviation, read-out: Binding - Ki, WT.

The structures appear in SMILES notation. Read-outs that look alike come from different tables or passages of the source.

With `CC[C@@H]1C[C@]1(NC(=O)[C@@H]1C[C@@H]2CN1C(=O)[C@H](C(C)(C)C)NC(=O)OCC(C)(C)CCCCc1cccc3c1CN(C3)C(=O)O2)C(=O)NS(=O)(=O)C1CC1` [Vaniprevir (MK-7009), Vaniprevir], in assay [1] (setting [7]), the Ki came out at 0.74 ± 0.07 nM. The IC50 was > 400 nM in assay [2], > 400 nM in assay [3], 0.34 nM in assay [4] and 176 nM in assay [5]. Further, the “Efficacy against genotype 3 viruses” value in the assay on genotype 3 viruses is on record as “reduced efficacy”.
Compound `CCC[C@H](NC(=O)[C@@H]1[C@H]2CCC[C@H]2CN1C(=O)[C@@H](NC(=O)[C@@H](NC(=O)c1cnccn1)C1CCCCC1)C(C)(C)C)C(=O)C(=O)NC1CC1` [Telaprevir (VX-950), Telaprevir] came in with a Ki in assay [1] of 34.4 ± 3 nM. Further, the IC50 in assay [2] is 420 nM; in assay [3], 5300 nM; in assay [4], 1030 nM; in assay [5] it was > 50000 nM.
With `CC(C)(C)OC(=O)N[C@H]1CCCCC/C=C\[C@@H]2C[C@@]2(C(=O)NS(=O)(=O)C2CC2)NC(=O)[C@@H]2C[C@@H](OC(=O)N3Cc4cccc(F)c4C3)CN2C1=O` [Danoprevir (ITMN-191), Danoprevir], the Ki turned out to be 44.8 ± 3.6 nM in assay [6] and 1 ± 0.1 nM in assay [1] (setting [7]). For the same compound, the IC50 is 48 nM in assay [2], > 100 nM in assay [3], 0.24 nM in assay [4] and 5.7 nM in assay [5]. Further, the “Efficacy against genotype 3 viruses” value in the assay on genotype 3 viruses is “reduced efficacy”.
With `C=C[C@@H]1C[C@]1(NC(=O)[C@@H]1C[C@@H]2CN1C(=O)[C@H](C(C)(C)C)NC(=O)O[C@@H]1C[C@H]1CCCCCc1nc3ccc(OC)cc3nc1O2)C(=O)NS(=O)(=O)C1CC1` [MK-5172], the IC50 turned out to be 13 nM in assay [2], 0.55 nM in assay [3], 0.11 nM in assay [4] and 108 nM in assay [5].

In general, IC50 refers to the concentration at which inhibition is half-maximal.
